Values joined by “and” are separate entries in the source; they are usually repeats but may differ in a detail not shown here. Equal values may be shown once. Read-outs that look alike come from different tables or passages of the source.
Assays:
[1] = Hepatic metabolic stability (hepatocyte clearance) assay, substrate depletion; type: in vitro ADME, human; conditions: both sexes, human, hepatocytes
In short: (§1)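 Pooled 50-donor human cryopreserved hepatocytes (50,000 cells/100 μL) incubated with 1 μM compound at 37 °C with shaking. Parent loss quantified against internal standards over time to T240 in triplicate; T½ and Clint (μL/min/million cells) from ln concentration vs time, corrected for abiotic loss in cell-free and inactivated-hepatocyte controls.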

[2] = tested on: pooled human cryopreserved primary hepatocyte suspensions; assay: as above; type: in vitro ADME
In short: as §1

[3] = Abiotic loss in negative controls of the hepatocyte clearance assay (cell-free media, metabolically inactivated hepatocytes); type: in vitro ADME
In short: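 Test compound at 1 μM incubated at 37 °C with shaking in complete William's medium E, either cell-free or with metabolically inactivated hepatocytes, then quenched with ice-cold acetonitrile for quantitative analysis.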

[4] = In vitro-in vivo extrapolation (IVIVE) to Css and administered equivalent dose (AED); set-up: species or system human
In short: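 Measured plasma protein binding (fup) and hepatocyte Clint served as IVIVE inputs to estimate human steady-state plasma concentration (Css). fup was converted to blood unbound fraction using blood:plasma partitioning, and Clint was scaled to whole-liver clearance (L/h). AEDs were derived by combining Css with published in vitro lowest-observed effective concentrations.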

human primary cells = conditions: cited from earlier work
human plasma [5] = assay: Chemical stability in plasma over the UC assay time course (T5hr/T1hr)
human plasma [6] = assay: Ultracentrifugation (UC) plasma protein binding assay, fraction unbound in plasma (fup)
[7] = hepatocyte incubation, Rep 1-3, start conc 1000 nM

NC(=O)C(F)(F)C(F)(F)C(F)(F)F [Heptafluorobutyramide]
hepatocyte CLint at 1 μM ([1]; background-subtracted, read-out: Bkgd-Sub Clearance (µL/min/106 hepatocytes)): 19.9 µL/min/1e6 cells | hepatocyte CLint at 1 μM ([1]; hepatocyte clearance, Conc 1000 nM, background adjusted, read-out: Bkgd Adj Clint): 19.9 µL/min/1e6 cells | hepatocyte CLint at 1 μM ([1]; hepatocyte clearance, Conc 1000 nM, not background adjusted, read-out: Unadj Clint): 19.9 µL/min/1e6 cells | hepatocyte CLint at 1 μM ([1]; hepatocyte intrinsic clearance adjusted for background (abiotic) loss, read-out: Bkgd_adj_Clint): 19.9 µL/min/1e6 cells | hepatocyte CLint at 1 μM ([1]; pooled human hepatocyte suspensions, 1 μM, read-out: In Vitro Clint): 19.9 µL/min/1e6 cells | hepatocyte CLint at 1 μM ([1]; unadjusted hepatocyte intrinsic clearance, read-out: Unadj in vitro Clint): 19.9 µL/min/1e6 cells | hepatocyte CLint at 1 μM ([1]; hepatocyte time course, NS = slope not significant, read-out: Linear Regression Results, Best-Fit Values, Clearance): 19.9 µL/min/1e6 cells | half-life at 1 μM ([1]; hepatocyte time course, NS = slope not significant, read-out: Linear Regression Results, Best-Fit Values, Half Life): 1.16 h | Concentration (nM), Time 0 min [2, 7]: 988.297 nM and 784.776 nM and 618.66 nM | Concentration (nM), Time 15 min [2, 7]: 550.618 nM and 957.096 nM and 714.95 nM | Concentration (nM), Time 30 min [2, 7]: 499.471 nM and 561.118 nM and 588.537 nM | Concentration (nM), Time 60 min [2, 7]: 417.033 nM and 313.668 nM and 348.927 nM | Concentration (nM), Time 120 min [2, 7]: 201.833 nM and 266.362 nM and 226.765 nM | Linear Regression Results, Best-Fit Values, Slope ([2]; hepatocyte time course): -0.009975 | Hep_Stab_Fail ([3]; flag for stability failure in hepatocyte clearance assay controls (1 or Fst = fail, 0 = pass)): 0 | Negative Controls, No cells (NC), concentration at 240 min ([3]; no cells, Rep 1-3): 409.23 nM and 475.181 nM and 464.709 nM | Css ([4]; Assuming 1 mg/kg/day dose rate, BW 70 kg): 0.0422 mg/L and 0.20 uM | Clhep ([4]; IVIVE, hepatocyte Clint scaled to whole-liver clearance): 63.013 L/h | AED ([4]; administered equivalent dose from LOEC and Css): 101.0389 mg/kg/day | Fub ([4]; fub=fup/(B:P), Fub set to 1 if needed): 1 | Css ([4]; human steady-state plasma concentration, assuming 1 mg/kg/day dosage): 0.20 µM | CLint ([4]; scaled with HPGL 110 mill cells/g, Vl 1596 g): 3502422 µL/min | LOEC (human primary cells; BioSeek lowest-observed effect concentration used for AED): 20.00 µM | LOEC (human primary cells; minimum lowest-observed effect concentration, BioSeek platform): 20 µM | Time 1 hr, Run-specific Avg (human plasma [5]; amount measured in plasma sample at 1 hr, run average, unit not given): 9336.10 | Time 5 hr, Run-specific Avg (human plasma [5]; amount measured in plasma sample at 5 hr, run average, unit not given): 8817.96 | Stability (T5hr/ T1hr), Run-specific Avg (human plasma [5]; average of one UC run): 0.945 | PPB_Stab_Fail (human plasma [5]; flag for stability failure in the plasma protein binding assay (1 = fail, 0 = pass)): 0 | Mean Stability (human plasma [5]; mean T5hr/T1hr ratio in plasma over all replicates/runs): 0.963 | Mean Stability (T5hr/T1hr) (human plasma [5]; mean over all UC runs and replicates, human plasma): 0.963 | Fstable.Med (human plasma [5]; median fraction stable in plasma, UC assay Level4): 0.999 | Aqueous Fraction, Run-specific Avg (human plasma [6]; amount measured in aqueous fraction after ultracentrifugation, run average, unit not given): 5392.01 | fup (human plasma [6]; human plasma, 10 μM, ultracentrifugation, 37 °C): 0.6030 | Fup.Med (human plasma [6]; median fraction unbound in plasma, UC assay Level4): 0.566 | Fup.point (human plasma [6]; point estimate of fraction unbound in plasma, UC assay Level4): 0.601
